Source: PubChem BioAssay AID1259408 (Genetic Toxicology Data Bank (GENE-TOX), 2018)
Calls of active or inactive are those of the source. The rule behind the calls is not given here.

Tested on: GENE-TOX genotoxicity assays, various organisms and cells
Assay: GENE-TOX mutagenicity studies
Conditions: for call: Assay Type: In vivo carcinogenicity studies, Assay Code: CCGT
[1] = Species/Cell Type: Chinese hamster ovary (CHO) cells, Assay Type: Forward gene mutation at the HPRT locus, Assay Code: CHOT, Evaluation Type: Evaluation B (Post-1980)
[2] = Species/Cell Type: Salmonella typhimurium (one or more of the five standard strains: TA98, TA100, TA1535, TA1537, and TA1538), Assay Type: Histidine reverse gene mutation, Ames assay, Assay Code: SAL+, Evaluation Type: Evaluation A (Pre-1980)
[3] = Species/Cell Type: Nonhuman, Assay Type: Sister-chromatid exchange (SCE) in vitro, Assay Code: SC2T, Evaluation Type: Evaluation B (Post-1980)
[4] = Species/Cell Type: Nonhuman, Evaluation Type: Evaluation A (Pre-1980)
[5] = Species/Cell Type: Salmonella typhimurium (one or more of the five standard strains: TA98, TA100, TA1535, TA1537, and TA1538), Assay Type: Histidine reverse gene mutation, Ames assay, Assay Code: SAL+*, Activation: With metabolic activation, Evaluation Type: Evaluation A (Pre-1980)
[6] = Species/Cell Type: Bacillus subtilis (H17 vs M45), Assay Type: Rec-assay, spot test, DNA effects (bacterial DNA repair), Assay Code: REW+, Evaluation Type: Evaluation A (Pre-1980)
[7] = Species/Cell Type: Human diploid fibroblasts, Assay Type: Unscheduled DNA synthesis (UDS) in vitro, DNA effects, Assay Code: UDH-, Evaluation Type: Evaluation A (Pre-1980)
[8] = Species/Cell Type: Allium cepa, Assay Type: Chromosome aberrations, Assay Code: ALC+D, Dose Response: With dose response, Evaluation Type: Evaluation A (Pre-1980)

CCNc1nc(Cl)nc(NC(C)C)n1
mutagenic call (Species/Cell Type: Aspergillus nidulans, Assay Type: Reverse gene mutation, Assay Code: ASR+*, Activation: With metabolic activation, Evaluation Type: Evaluation A (Pre-1980)): active; positive
mutagenic call (Species/Cell Type: Drosophila melanogaster, Assay Type: Aneuploidy, sex chromosome gain, chromosome aberrations, Assay Code: DAGT, Evaluation Type: Evaluation A (Pre-1980)): no conclusion
mutagenic call (Species/Cell Type: Drosophila melanogaster, Assay Type: Aneuploidy, whole sex chromosome loss, chromosome aberrations, Assay Code: DACT, Evaluation Type: Evaluation A (Pre-1980)): no conclusion
mutagenic call (Species/Cell Type: Drosophila melanogaster, Assay Type: Sex-linked recessive lethal gene mutation, Assay Code: SRLT, Evaluation Type: Evaluation A (Pre-1980)): no conclusion
mutagenic call (Species/Cell Type: Hordeum vulgare (barley), Assay Type: Chromosome aberrations, Assay Code: HOC+, Evaluation Type: Evaluation A (Pre-1980)): active; positive
mutagenic call (Species/Cell Type: Neurospora crassa, Assay Type: Aneuploidy, chromosome aberrations, Assay Code: NEN-, Evaluation Type: Evaluation A (Pre-1980)): inactive; negative
mutagenic call (Species/Cell Type: Saccharomyces cerevisiae, Assay Type: Mitotic recombination or gene conversion, Assay Code: YEC+*, Activation: With metabolic activation, Evaluation Type: Evaluation A (Pre-1980)): active; positive
mutagenic call (Species/Cell Type: Tradescantia species, Assay Type: Gene mutation, Assay Code: TRM-, Evaluation Type: Evaluation A (Pre-1980)): inactive; negative
mutagenic call (Species/Cell Type: Vicia faba, Assay Type: Chromosome aberrations, Assay Code: VIC+, Evaluation Type: Evaluation A (Pre-1980)): active; positive
mutagenic call (Species/Cell Type: Zea mays (corn), Assay Type: Gene mutation, Assay Code: ZEM+F, Evaluation Type: Evaluation A (Pre-1980)): active; positive

CCN(CCO)CCCNc1c2ccc(Cl)cc2nc2ccc(OC)nc12
mutagenic call [1]: no conclusion

Cc1ccc(Nc2ccc3c4c(cccc24)C(=O)c2ccccc2-3)cc1
mutagenic call [2]: active; positive

OCc1ccc(-c2ccccc2)cc1
mutagenic call [1]: no conclusion
mutagenic call (Species/Cell Type: Mammalian polychromatic erythrocytes, Assay Type: Micronucleus test, chromosome aberrations, Assay Code: MNT+U, Dose Response: Unconfirmed positive response, Evaluation Type: Evaluation B (Post-1980)): active; positive

CC(=O)c1c(=O)cc(C)oc1=O
mutagenic call (Species/Cell Type: Nonhuman, Assay Type: Sister-chromatid exchange (SCE) in vitro, Assay Code: SC2-, Evaluation Type: Evaluation A (Pre-1980)): inactive; negative
mutagenic call [3]: no conclusion

CC(=O)[O-].CC(=O)[O-].[Cd+2]
call [4]: no conclusion
mutagenic call (Species/Cell Type: Nonhuman, Assay Type: Sister-chromatid exchange (SCE) in vitro, Assay Code: SC2-, Evaluation Type: Evaluation B (Post-1980)): inactive; negative
mutagenic call (Species/Cell Type: Syrian hamster embryo (SA7/SHE) cells, Assay Type: Cell transformation, viral enhanced, Assay Code: CT7+, Evaluation Type: Evaluation A (Pre-1980)): active; positive
mutagenic call (Species/Cell Type: Syrian hamster embryo (SHE) cells, Assay Type: Cell transformation, clonal assay, Assay Code: CTC+, Evaluation Type: Evaluation A (Pre-1980)): active; positive

Cc1[nH]cnc1CSCCN(N=O)C(=NC#N)N(C)N=O
mutagenic call (Species/Cell Type: Nonhuman, Assay Type: Sister-chromatid exchange (SCE) in vitro, Assay Code: SC2+D, Dose Response: With dose response, Evaluation Type: Evaluation B (Post-1980)): active; positive

Cc1c2c(c(CO)c3ccc4ccccc4c13)[C@H](O)[C@@H](O)C=C2
mutagenic call (Species/Cell Type: Chinese hamster lung (V79) cells, Assay Type: Forward gene mutation at the HPRT or ouabain locus, Assay Code: V79+, Evaluation Type: Evaluation A (Pre-1980)): active; positive
call [4]: no conclusion

COc1ccc2c(ccc3c4c(ccc32)C(C)=CC4)c1
mutagenic call [5]: active; positive

COC([CH2][Hg+])CNC(=O)C1CCC(C)(C(=O)[O-])C1(C)C.O=C([O-])C[S-].[H+].[H+] (configuration not stated)
mutagenic call (Species/Cell Type: Mammalian oocytes or early embryo, Assay Type: Chromosome aberrations in vivo, Assay Code: CYO-, Evaluation Type: Evaluation A (Pre-1980)): inactive; negative

O=NN1CCC(Br)C(Br)C1 (configuration not stated)
mutagenic call (Species/Cell Type: Drosophila melanogaster, Assay Type: Sex-linked recessive lethal gene mutation, Assay Code: SRL+, Evaluation Type: Evaluation A (Pre-1980)): active; positive
mutagenic call [2]: active; positive

COc1cc2c(c3oc(=O)c4c(c13)CC[C@@H]4O)[C@@H]1C=CO[C@@H]1O2
mutagenic call (Species/Cell Type: Human diploid fibroblasts, Assay Type: Unscheduled DNA synthesis (UDS) in vitro, DNA effects, Assay Code: UDH+D, Dose Response: With dose response, Evaluation Type: Evaluation A (Pre-1980)): active; positive
mutagenic call [5]: active; positive

C=CCNC(=O)Nc1nc(-c2ccccc2)cs1
mutagenic call (Species/Cell Type: Salmonella typhimurium, Assay Type: Forward and reverse gene mutation, host-mediated assay, Assay Code: HMAT, Evaluation Type: Evaluation A (Pre-1980)): no conclusion

C/C(=N\O)c1ccc([N+](=O)[O-])s1
mutagenic call (Species/Cell Type: Salmonella typhimurium (one or more of the five standard strains: TA98, TA100, TA1535, TA1537, and TA1538), Assay Type: Histidine reverse gene mutation, Ames assay, Assay Code: SALT, Evaluation Type: Evaluation A (Pre-1980)): no conclusion

O=NN1CCCC1=O
mutagenic call [6]: active; positive

[Cl][Ge]([Cl])([Cl])[Cl]
mutagenic call [6]: active; positive

CCCCCc1cc(O)c2c(c1)OC(C)(C)[C@@H]1CCC(CO)=C[C@@H]21
mutagenic call [7]: inactive; negative

CCCCOC(=O)COc1cc(Cl)c(Cl)cc1Cl
mutagenic call (Species/Cell Type: Salmonella typhimurium, Serratia marcesens, Assay Type: Forward and reverse gene mutation, host-mediated assay, Assay Code: HM2T, Evaluation Type: Evaluation A (Pre-1980)): no conclusion

CCCCCc1cc(OC(=O)CCCN2CCOCC2)c2c(c1)OC(C)(C)[C@@H]1CCC(C)=C[C@@H]21
mutagenic call [7]: inactive; negative

Cc1cc2ccccc2oc1=O
mutagenic call [8]: active; positive

Cc1ccc2nc3sc(=O)sc3nc2c1
mutagenic call (Species/Cell Type: Saccharomyces cerevisiae, Assay Type: Mitotic recombination or gene conversion, Assay Code: YEC-, Evaluation Type: Evaluation A (Pre-1980)): inactive; negative

COC1OC[C@@H](C(C)=O)[C@H]1C (some centres not stated)
mutagenic call [3]: no conclusion

CC1CCCCN1CCNc1ccc(CO)c2sc3ccccc3c(=O)c12 (configuration not stated)
mutagenic call (Species/Cell Type: Mouse lymphoma (L5178Y) cells, Assay Type: Forward gene mutation at the thymidine kinase (TK) locus, chromosome aberrations, Assay Code: L51+, Evaluation Type: Evaluation A (Pre-1980)): active; positive

N#Cc1ccc2ccccc2c1
mutagenic call [8]: active; positive

COC(=O)Nc1nc2ccc(C(=O)c3ccccc3)cc2[nH]1
mutagenic call (Species/Cell Type: Salmonella typhimurium, Assay Type: Forward and reverse gene mutation, body fluid assay, Assay Code: BFU+, Evaluation Type: Evaluation A (Pre-1980)): active; positive
mutagenic call (Species/Cell Type: Salmonella typhimurium, Assay Type: Forward and reverse gene mutation, host-mediated assay, Assay Code: HMA+, Evaluation Type: Evaluation A (Pre-1980)): active; positive

Cc1cc(=Nc2ccc3c(c2)c(-c2ccc(N)cc2)[n+](C)c2cc(N)ccc32)nc(N)n1C
mutagenic call [2]: active; positive

CO[C@@H]1[C@H](O)C[C@@H](O[C@@H]2C[C@H](Oc3cc4cc5c(c(O)c4c(O)c3C)C(=O)[C@@H](O[C@H]3C[C@@H](O[C@H]4C[C@@H](O[C@H]6C[C@](C)(O)[C@@H](OC(C)=O)[C@H](C)O6)[C@H](O)[C@@H](C)O4)[C@H](O)[C@@H](C)O3)[C@H]([C@H](OC)C(=O)[C@@H](O)[C@@H](C)O)C5)O[C@H](C)[C@@H]2OC(C)=O)O[C@@H]1C
mutagenic call (Species/Cell Type: Chinese hamster ovary (CHO) cells, Assay Type: Forward gene mutation at the HPRT locus, Assay Code: CHO+, Evaluation Type: Evaluation B (Post-1980)): active; positive

COc1cc(S(=O)(=O)O)c(C)cc1N=Nc1c(O)ccc2cc(S(=O)(=O)O)ccc12
mutagenic call (Species/Cell Type: Drosophila melanogaster, Assay Type: Sex-linked recessive lethal gene mutation, Assay Code: SRL-, Evaluation Type: Evaluation A (Pre-1980)): inactive; negative
mutagenic call (Species/Cell Type: Salmonella typhimurium (one or more of the five standard strains: TA98, TA100, TA1535, TA1537, and TA1538), Assay Type: Histidine reverse gene mutation, Ames assay, Assay Code: SAL-, Evaluation Type: Evaluation A (Pre-1980)): inactive; negative
